From paper PMC4315410, “A New PAMPA Model Proposed on the Basis of a Synthetic Phospholipid Membrane” (PLoS ONE, 2015)
Structures can show the parent of a compound that is named as a salt.

Columns and labels:
[1] = design: method as in PMID 11576780, PMID 9691477; conditions: cited from earlier work
[2] = PAMPA with synthetic phospholipid membrane, octyl chain (C8); type: in vitro ADME; conditions: for Papp at 16 h: PAMPA, read-out: P e
Method: (§1) In PAMPA, a “sandwich” structure was formed by a 96-well microtiter plate and a 96-well filter plate from Millipore (IPVH, 125 μm thick filter, 0.45 μm pore), then wetted with a 4 μl 2% w/v phospholipid compound solution in n-dodecane [27].
(§2) The stock solutions of the drug samples were prepared at 10 mM concentrations in DMSO and stored at 0°C before use. Before being added to a 96-well filter plate, the stock solution was diluted first with buffer to achieve a final sample concentration of 10∼50 μM and to reduce the DMSO concentration below 1% (v/v).
(§3) The PAMPA plate was filled with a 300 μl diluted drug solution to prepare the “donor” wells, and the 96-well filter plate containing a synthetic phospholipid membrane was then placed on the donor wells. The “acceptor” wells were filled with 200 μl of buffer solution and placed on top of the “sandwich”, and the PAMPA instruments were incubated at 25°C in a sealed and saturated humidity container for a specified time. After reaching the permeation time, the PAMPA plate sandwich was separated, and the amount of drugs in both the donor and acceptor compartments were measured by comparing the experimental spectra with the UV spectrum (220∼400 nm) obtained from reference standards.
(§4) The factor S was the fraction of samples remaining in the donor and the acceptor wells at time t.
(§5) In the incubation time assays, the pH was 7.4 in both the donor and acceptor wells. In the pH-gradient assays, the pH of the drug solutions was varied using NaOH-treated universal buffer (pION Inc.) in the donor wells, and the pH in the acceptor solution was pH 7.4 [15]. In addition, the incubation time in the pH-gradient test assays was 16 h.

[3] = PAMPA with synthetic phospholipid membrane, lauryl chain (C12); type: in vitro ADME; conditions: for Papp at 16 h: PAMPA, read-out: P e
Method: as §1, §2, §3, §4, §5

[4] = PAMPA with synthetic phospholipid membrane, decyl chain (C10); type: in vitro ADME; conditions: for Papp at 16 h: PAMPA, read-out: P e
Method: as §1, §2, §3, §4, §5

[5] = design: method as in DrugBank database; conditions: ref DrugBank database; cited from earlier work
[6] = design: method as in Chinese Pharmacopoeia, 2005 edition and references 15, 27, 38; conditions: ref Chinese Pharmacopoeia, 2005 edition and references 15, 27, 38; cited from earlier work
[7] = C8, donor pH 4.6, acceptor pH 7.4, 16 h
[8] = C8, donor pH 4.98, acceptor pH 7.4, 16 h
[9] = C8, donor pH 6.57, acceptor pH 7.4, 16 h
[10] = C8, donor pH 9.32, acceptor pH 7.4, 16 h
[11] = pH 7.4, C8 membrane, incubation time 16 h, pH 7.4 donor and acceptor, 25°C
[12] = C12, donor pH 4.6, acceptor pH 7.4, 16 h
[13] = C12, donor pH 4.98, acceptor pH 7.4, 16 h
[14] = C12, donor pH 6.57, acceptor pH 7.4, 16 h
[15] = C12, donor pH 9.32, acceptor pH 7.4, 16 h
[16] = pH 7.4, C12 membrane, incubation time 16 h, pH 7.4 donor and acceptor, 25°C
[17] = C10, donor pH 4.98, acceptor pH 7.4, 16 h
[18] = C10, donor pH 4.6, acceptor pH 7.4, 16 h
[19] = C10, donor pH 6.57, acceptor pH 7.4, 16 h
[20] = C10, donor pH 9.32, acceptor pH 7.4, 16 h
[21] = pH 7.4, C10 membrane, incubation time 16 h, pH 7.4 donor and acceptor, 25°C
[22] = C8, donor pH 8.2, acceptor pH 7.4, 16 h
[23] = C12, donor pH 8.2, acceptor pH 7.4, 16 h
[24] = C10, donor pH 8.2, acceptor pH 7.4, 16 h

| SMILES | %FA (human fraction absorbed) [1] [%] | Papp at 16 h [2, 7] [×10⁻⁶ cm/s] | Papp at 16 h [2, 8] [×10⁻⁶ cm/s] | Papp at 16 h [2, 11] [×10⁻⁶ cm/s] | P e [3, 12] | P e [3, 13] | Papp at 16 h [3, 16] [×10⁻⁶ cm/s] | P e [4, 17] | Papp at 16 h [4, 21] [×10⁻⁶ cm/s] | Water solubility [5] [mg] | P e [2, 8] | P e [2, 9] | P e [2, 22] | P e [3, 14] | P e [3, 23] | P e [3, 15] | P e [4, 18] | P e [4, 19] | P e [4, 24] | P e [4, 20] | other results |
| --- | --- | --- | --- | --- | --- | --- | --- | --- | --- | --- | --- | --- | --- | --- | --- | --- | --- | --- | --- | --- | --- |
| NC(N)=Nc1nc(CSCCC(N)=NS(N)(=O)=O)cs1 [Famotidine] | 40 | 1.1 | 2.2 | 2.7 ± 0.3 | 1.2 ×10^–6 cm/s | 1.2 ×10^–6 cm/s | 3.2 ± 0.4 | 2.2 ×10^–6 cm/s | 2.8 ± 0.2 | 1000 | – | – | – | – | – | – | – | – | – | – | Papp at 16 h [2, 9]: 5 ×10⁻⁶ cm/s; Papp at 16 h [2, 10]: 5.1 ×10⁻⁶ cm/s; Papp at 16 h [3, 14]: 6 ×10⁻⁶ cm/s; Papp at 16 h [3, 15]: 6.1 ×10⁻⁶ cm/s; Papp at 16 h [4, 18]: 1.2 ×10⁻⁶ cm/s; Papp at 16 h [4, 19]: 5.7 ×10⁻⁶ cm/s; Papp at 16 h [4, 20]: 5.5 ×10⁻⁶ cm/s; pKa (first value listed) [6]: 7.24; pKa (second value listed) [6]: 11.19 |
| CNC(=C[N+](=O)[O-])NCCSCc1ccc(CN(C)C)o1 [Ranitidine] | 55 | – | – | 1.2 ± 0.1 | 1.6 ×10^–7 cm/s | 1.8 ×10^–7 cm/s | 1.5 ± 0.1 | 1.8 ×10^–7 cm/s | 1.4 ± 0.1 | 24.7 | 1.8 ×10^–7 cm/s | 3.2 ×10^–7 cm/s | 4.9 ×10^–7 cm/s | 3.2 ×10^–7 cm/s | 4.9 ×10^–7 cm/s | 5.4 ×10^–7 cm/s | 1.6 ×10^–7 cm/s | 3.1 ×10^–7 cm/s | 5.8 ×10^–7 cm/s | 5.5 ×10^–7 cm/s | P e [2, 7]: 1.6 ×10^–7 cm/s |
| CN/C(=N/CCSCc1nc[nH]c1C)NC#N [Cimetidine] | 85 | 1.8 | 1.6 | 2.6 ± 0.4 | 1.8 ×10^–6 cm/s | 1.9 ×10^–6 cm/s | 3.2 ± 0.3 | – | 2.8 ± 0.3 | 9380 | – | 2.6 ×10^–6 cm/s | 3.2 ×10^–6 cm/s | – | 3.2 ×10^–6 cm/s | 3.4 ×10^–6 cm/s | 1.8 ×10^–6 cm/s | 2.6 ×10^–6 cm/s | – | – | Papp at 16 h [2, 10]: 3.7 ×10⁻⁶ cm/s; Papp at 16 h [3, 14]: 2.7 ×10⁻⁶ cm/s; Papp at 16 h [4, 17]: 1.9 ×10⁻⁶ cm/s; Papp at 16 h [4, 24]: 3.1 ×10⁻⁶ cm/s; Papp at 16 h [4, 20]: 3.4 ×10⁻⁶ cm/s; pKa (first value listed) [6]: 7.23 |
| COCCc1ccc(OCC(O)CNC(C)C)cc1 (stereo not drawn) [Metoprolol Tartrate] | – | – | – | 9.2 ± 0.6 | 1.6 ×10^–5 cm/s | 2.6 ×10^–5 cm/s | 11.7 ± 0.5 | 2.5 ×10^–5 cm/s | 10.3 ± 0.5 | 16900 | 2.7 ×10^–5 cm/s | 5.1 ×10^–5 cm/s | 8.0 ×10^–5 cm/s | 5.0 ×10^–5 cm/s | 8.0 ×10^–5 cm/s | 9.1 ×10^–5 cm/s | 1.4 ×10^–5 cm/s | 5.3 ×10^–5 cm/s | 7.5 ×10^–5 cm/s | 9.3 ×10^–5 cm/s | P e [2, 10]: 8.9 ×10^–5 cm/s |
| CC(C)Cc1ccc(C(C)C(=O)O)cc1 (stereo not drawn) [Ibuprofen] | – | 23 | 23.5 | 13.9 ± 0.5 | – | 23.0 ×10^–6 cm/s | 16.7 ± 0.4 | – | 14.5 ± 0.5 | 21 | – | – | – | – | 1.5 ×10^–6 cm/s | 2.6 ×10^–6 cm/s | 23.0 ×10^–6 cm/s | – | – | 2.6 ×10^–6 cm/s | Papp at 16 h [2, 9]: 8.5 ×10⁻⁶ cm/s; Papp at 16 h [2, 22]: 3 ×10⁻⁶ cm/s; Papp at 16 h [2, 10]: 2.6 ×10⁻⁶ cm/s; Papp at 16 h [3, 12]: 22.5 ×10⁻⁶ cm/s; Papp at 16 h [3, 14]: 7.5 ×10⁻⁶ cm/s; Papp at 16 h [4, 17]: 22 ×10⁻⁶ cm/s; Papp at 16 h [4, 19]: 7 ×10⁻⁶ cm/s; Papp at 16 h [4, 24]: 1.5 ×10⁻⁶ cm/s |
| O=C(N[C@H](CO)[C@H](O)c1ccc([N+](=O)[O-])cc1)C(Cl)Cl [Chloroamphenicol] | – | 4.3 | – | 8.8 ± 0.2 | – | 4.2 ×10^–6 cm/s | 14.6 ± 0.3 | – | 9.8 ± 0.3 | – | 4.2 ×10^–6 cm/s | – | – | – | 0.7 ×10^–6 cm/s | 0.5 ×10^–6 cm/s | – | – | – | 0.5 ×10^–6 cm/s | Papp at 16 h [2, 9]: 1.7 ×10⁻⁶ cm/s; Papp at 16 h [2, 22]: 0.6 ×10⁻⁶ cm/s; Papp at 16 h [2, 10]: 0.5 ×10⁻⁶ cm/s; Papp at 16 h [3, 12]: 4.4 ×10⁻⁶ cm/s; Papp at 16 h [3, 14]: 1.5 ×10⁻⁶ cm/s; Papp at 16 h [4, 18]: 4.2 ×10⁻⁶ cm/s; Papp at 16 h [4, 17]: 4 ×10⁻⁶ cm/s; Papp at 16 h [4, 19]: 1 ×10⁻⁶ cm/s; Papp at 16 h [4, 24]: 0.7 ×10⁻⁶ cm/s; pKa (first value listed) [6]: 4.3 |
| CN(C)C(=N)N=C(N)N [Metformin Hydrochloride] | – | – | – | 2.4 ± 0.4 | 1.6 ×10^–7 cm/s | 1.7 ×10^–7 cm/s | 3.4 ± 0.2 | 1.6 ×10^–7 cm/s | 2.9 ± 0.3 | – | 1.6 ×10^–7 cm/s | 3.2 ×10^–7 cm/s | 4.9 ×10^–7 cm/s | 3.1 ×10^–7 cm/s | 4.9 ×10^–7 cm/s | 7.3 ×10^–7 cm/s | 1.5 ×10^–7 cm/s | 3.2 ×10^–7 cm/s | 5.8 ×10^–7 cm/s | 7.2 ×10^–7 cm/s | P e [2, 7]: 1.5 ×10^–7 cm/s; P e [2, 10]: 7.4 ×10^–7 cm/s |
| CC1(C)S[C@@H]2[C@H](NC(=O)[C@H](N)c3ccc(O)cc3)C(=O)N2[C@H]1C(=O)O [Amoxicillin] | 93 | – | – | 4.6 ± 0.4 | 1.9 ×10^–7 cm/s | 2.1 ×10^–7 cm/s | 5.7 ± 0.4 | 2.1 ×10^–7 cm/s | 5.3 ± 0.3 | – | 2.1 ×10^–7 cm/s | 2.6 ×10^–7 cm/s | 2.4 ×10^–7 cm/s | 2.6 ×10^–7 cm/s | 2.3 ×10^–7 cm/s | 2.0 ×10^–7 cm/s | 1.9 ×10^–7 cm/s | 2.5 ×10^–7 cm/s | 2.3 ×10^–7 cm/s | 2.2 ×10^–7 cm/s | P e [2, 7]: 1.9 ×10^–7 cm/s; P e [2, 10]: 2.2 ×10^–7 cm/s; pKa (second value listed) [6]: 7.31; pKa (third value listed) [6]: 9.53 |
| CCn1cc(C(=O)O)c(=O)c2cc(F)c(N3CCNCC3)cc21 [Norfloxacin] | – | 1.9 | 2.3 | 0.9 ± 0.1 | – | 2.2 ×10^–6 cm/s | – | – | 1 ± 0.1 | 178000 | – | – | 2.5 ×10^–6 cm/s | 2.6 ×10^–6 cm/s | 2.6 ×10^–6 cm/s | 2.2 ×10^–6 cm/s | 1.9 ×10^–6 cm/s | – | 2.5 ×10^–6 cm/s | 2.3 ×10^–6 cm/s | P e [2, 10]: 2.2 ×10^–6 cm/s; Papp at 16 h [2, 9]: 2.6 ×10⁻⁶ cm/s; P e ([3]; C12 membrane, incubation time 16 h, pH 7.4 donor and acceptor, 25°C): 1.0±0.1 10^−6 cm/s; Papp at 16 h [3, 12]: 1.8 ×10⁻⁶ cm/s; Papp at 16 h [4, 17]: 2.2 ×10⁻⁶ cm/s; Papp at 16 h [4, 19]: 2.5 ×10⁻⁶ cm/s; pKa (first value listed) [6]: 6.26 |
